Active and inactive are the calls of the source.
Key:
[1] = HEp-2 cell cytotoxicity, dose response, cytotoxicity control for RSV inhibitor project, HTS (AID 2410); type: functional; conditions: human respiratory syncytial virus
[2] = system: BJ; assay: cytotoxicity toward BJ-TERT fibroblasts, dose response, cell-based, RAS-independent, luminescence (AID 1933); type: functional; conditions: Homo sapiens
[3] = system: BJ; assay: cells; type: functional, cell-based; conditions: Homo sapiens
[4] = growth suppression of PTEN-null colon cells, dose response, cell-based, HCT116 PTEN knockout (AID 1047); type: functional;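 further: HCT116 colon tumor cells with PTEN knocked out; cells exposed to compound for 60 hours before readout; potency for loss of cell viability measured by luminescence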
[5] = growth suppression of beta-catenin-knockout colon cells, dose response, cell-based, HCT116, human colon tumor (AID 1045); type: functional;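 further: HCT116 colon tumor cells with beta catenin knocked out; cells exposed to compound for 60 hours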
[6] = system: BJ; assay: cytotoxicity toward BJ-TERT-LT-ST fibroblasts, dose response, cell-based, RAS-independent, luminescence (AID 1935); type: functional; conditions: Homo sapiens;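 further: BJ fibroblasts immortalized with TERT plus LT and ST oncogenes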
[7] = cytotoxicity toward DRD oncogenic fibroblasts, dose response, cell-based, non-viral oncogenic, luminescence (AID 1934); type: functional; conditions: Homo sapiens
[8] = target: CAAX prenyl protease 2 (Saccharomyces cerevisiae S288c, UniProt Q03530); type: biochemical
[9] = target: T1, Replicative DNA helicase DnaB (Mycobacterium tuberculosis, UniProt P9WMR3); assay: DnaB intein splicing inhibitors, dose response, biochemical, cell-free fluorescence (AID 449749); type: functional
T1 sequence (P9WMR3 whole entry): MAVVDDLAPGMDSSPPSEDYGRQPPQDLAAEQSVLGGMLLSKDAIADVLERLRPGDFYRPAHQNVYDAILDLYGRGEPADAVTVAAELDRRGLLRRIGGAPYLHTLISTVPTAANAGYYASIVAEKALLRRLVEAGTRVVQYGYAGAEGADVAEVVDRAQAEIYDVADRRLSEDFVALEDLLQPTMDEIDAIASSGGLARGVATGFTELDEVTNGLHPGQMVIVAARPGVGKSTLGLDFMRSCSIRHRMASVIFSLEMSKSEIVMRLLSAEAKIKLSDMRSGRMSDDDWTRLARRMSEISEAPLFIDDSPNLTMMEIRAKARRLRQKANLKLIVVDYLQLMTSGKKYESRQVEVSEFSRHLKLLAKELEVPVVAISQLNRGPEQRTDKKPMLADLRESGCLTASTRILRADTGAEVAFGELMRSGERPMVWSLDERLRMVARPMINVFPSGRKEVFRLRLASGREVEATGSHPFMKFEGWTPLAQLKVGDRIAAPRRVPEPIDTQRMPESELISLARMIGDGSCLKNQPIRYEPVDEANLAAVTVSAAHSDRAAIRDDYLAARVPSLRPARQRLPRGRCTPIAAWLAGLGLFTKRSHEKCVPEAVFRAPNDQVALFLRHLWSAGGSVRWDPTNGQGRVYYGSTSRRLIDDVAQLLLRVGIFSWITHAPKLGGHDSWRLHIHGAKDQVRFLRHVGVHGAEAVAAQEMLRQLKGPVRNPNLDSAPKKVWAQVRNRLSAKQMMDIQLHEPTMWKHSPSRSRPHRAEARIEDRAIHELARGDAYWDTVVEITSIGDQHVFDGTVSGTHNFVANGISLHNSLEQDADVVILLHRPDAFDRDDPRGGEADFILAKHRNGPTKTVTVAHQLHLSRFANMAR

[10] = target: T2, Protein RecA (Mycobacterium tuberculosis, UniProt P9WHJ3); assay: Fluorescence Cell-Free Homogeneous Dose Retest to Identify Inhibitors of RecA-Intein Splicing Activity. [Related pubchem assays (depositor defined):AID2097, AID2223, AID489010, AID492950]; type: functional
T2 sequence (P9WHJ3 whole entry): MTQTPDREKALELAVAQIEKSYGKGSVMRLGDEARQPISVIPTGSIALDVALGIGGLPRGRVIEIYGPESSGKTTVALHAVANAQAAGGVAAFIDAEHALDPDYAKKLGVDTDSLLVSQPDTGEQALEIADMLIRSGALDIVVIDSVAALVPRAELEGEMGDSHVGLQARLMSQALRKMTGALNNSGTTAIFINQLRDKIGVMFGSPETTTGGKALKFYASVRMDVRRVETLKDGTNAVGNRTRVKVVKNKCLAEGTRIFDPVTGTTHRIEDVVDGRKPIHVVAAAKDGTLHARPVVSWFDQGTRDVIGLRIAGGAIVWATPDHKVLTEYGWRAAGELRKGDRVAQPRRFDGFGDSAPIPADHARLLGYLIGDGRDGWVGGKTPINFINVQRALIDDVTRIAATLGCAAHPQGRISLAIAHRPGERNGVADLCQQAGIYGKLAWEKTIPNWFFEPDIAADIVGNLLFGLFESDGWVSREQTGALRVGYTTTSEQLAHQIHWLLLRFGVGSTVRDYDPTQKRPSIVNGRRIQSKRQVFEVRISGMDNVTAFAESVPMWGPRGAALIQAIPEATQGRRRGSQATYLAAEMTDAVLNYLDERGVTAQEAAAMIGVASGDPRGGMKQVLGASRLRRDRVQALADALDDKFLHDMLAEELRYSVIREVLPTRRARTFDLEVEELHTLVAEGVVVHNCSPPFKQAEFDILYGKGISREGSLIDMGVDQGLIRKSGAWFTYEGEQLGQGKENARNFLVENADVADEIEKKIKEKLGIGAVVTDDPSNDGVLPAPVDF

[11] = target: Sphingosine 1-phosphate receptor 1 (Homo sapiens, UniProt P21453); assay: Fluorescence-based counterscreen assay for S1P4 agonists: Cell-based dose response high throughput screening assay to identify agonists of the Sphingosine 1-Phosphate Receptor 1 (S1P1). [Related pubchem assays (depositor defined):AID1509, AID1523, AID1801, AID463107, AID463118, AID463119, AID463122, AID463123, AID463129, AID463225, AID504400, AID504460]; type: functional
[12] = target: T3, Sphingosine 1-phosphate receptor 4 (Homo sapiens, UniProt O95977); assay: Fluorescence dose response cell-based high throughput screening assay for agonists of the Sphingosine 1-Phosphate Receptor 4 (S1P4). [Related pubchem assays: 1509 (Primary screen.), 1523 (Confirmation screen in triplicates.)]; type: functional
T3 sequence (O95977 whole entry): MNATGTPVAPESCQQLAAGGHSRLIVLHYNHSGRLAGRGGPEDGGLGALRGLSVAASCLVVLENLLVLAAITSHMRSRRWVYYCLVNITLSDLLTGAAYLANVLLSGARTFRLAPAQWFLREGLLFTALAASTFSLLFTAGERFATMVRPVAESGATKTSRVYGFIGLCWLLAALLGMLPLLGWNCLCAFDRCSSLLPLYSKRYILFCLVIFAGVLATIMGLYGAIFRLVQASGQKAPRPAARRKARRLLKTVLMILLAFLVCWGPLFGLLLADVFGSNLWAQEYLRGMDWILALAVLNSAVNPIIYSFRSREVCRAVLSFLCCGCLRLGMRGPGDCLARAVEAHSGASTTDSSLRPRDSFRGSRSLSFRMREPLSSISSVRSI

[13] = target: T4, G-protein coupled receptor 35 (Homo sapiens, UniProt Q9HC97); assay: SAR analysis of Agonists of the GPR35 Receptor using an Image-Based Assay - Set 4. [Related pubchem assays (depositor defined):AID2013, AID2026]; type: functional
[14] = target: T5, Cannabinoid receptor 1 (Homo sapiens, UniProt P21554); assay: SAR analysis of agonists of the Cannabinoid Receptor 1 using an Image-Based Assay - Set 4. [Related pubchem assays (depositor defined):AID2013, AID2026]; type: functional
[15] = target: T4, G-protein coupled receptor 35; assay: SAR analysis of Antagonists of the GPR35 Receptor using an Image-Based Assay - Set 6. [Related pubchem assays (depositor defined):AID2013, AID2026]; type: functional
[16] = target: T5, Cannabinoid receptor 1; assay: SAR analysis of antagonists of the Cannabinoid Receptor 1 using an Image-Based Assay - Set 4. [Related pubchem assays (depositor defined):AID2013, AID2026]; type: functional
[17] = target: G-protein coupled receptor 55 (Homo sapiens, UniProt Q9Y2T6); assay: SAR Analysis of Selective Antagonists of GPR55 using an Image-Based Assay - Set 4. [Related pubchem assays (depositor defined):AID2013, AID2026]; type: functional;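 further: antagonism of response to 5 µM lysophosphatidylinositol agonist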
[18] = target: T6, Cannabinoid receptor 2 (Homo sapiens, UniProt P34972); assay: SAR analysis of antagonists of the Cannabinoid Receptor 2 using an Image-Based Assay - Set 3. [Related pubchem assays (depositor defined):AID2013, AID2026]; type: functional
[19] = target: T6, Cannabinoid receptor 2; assay: SAR analysis of agonists of the Cannabinoid Receptor 2 using an Image-Based Assay - Set 3. [Related pubchem assays (depositor defined):AID2013, AID2026]; type: functional
[20] = target: Glyceraldehyde-3-phosphate dehydrogenase (Homo sapiens, UniProt P04406)
[21] = target: Alkaline phosphatase, placental type (Homo sapiens, UniProt P05187); assay: PLAP enzyme inhibitors, confirmation, biochemical, luminescence (AID 1512); type: functional
[22] = target: Ion channel NompC (Danio rerio, UniProt Q7T1G6); assay: Dose response cell-based high-throughput screening assay for agonists of the transient receptor potential channel N1 (TRPN1). [Related pubchem assays (depositor defined):AID1424, AID1448]; type: functional
[23] = target: T7, Mucolipin-3 (Homo sapiens, UniProt Q8TDD5); assay: Fluorescence counterscreen assay for […] agonists: dose response cell-based high-throughput screening assay to identify agonists of the transient receptor potential channel ML3 (TRPML3). [Related pubchem assays: 1424, 1448 ]; type: functional
T7 sequence (Q8TDD5 whole entry): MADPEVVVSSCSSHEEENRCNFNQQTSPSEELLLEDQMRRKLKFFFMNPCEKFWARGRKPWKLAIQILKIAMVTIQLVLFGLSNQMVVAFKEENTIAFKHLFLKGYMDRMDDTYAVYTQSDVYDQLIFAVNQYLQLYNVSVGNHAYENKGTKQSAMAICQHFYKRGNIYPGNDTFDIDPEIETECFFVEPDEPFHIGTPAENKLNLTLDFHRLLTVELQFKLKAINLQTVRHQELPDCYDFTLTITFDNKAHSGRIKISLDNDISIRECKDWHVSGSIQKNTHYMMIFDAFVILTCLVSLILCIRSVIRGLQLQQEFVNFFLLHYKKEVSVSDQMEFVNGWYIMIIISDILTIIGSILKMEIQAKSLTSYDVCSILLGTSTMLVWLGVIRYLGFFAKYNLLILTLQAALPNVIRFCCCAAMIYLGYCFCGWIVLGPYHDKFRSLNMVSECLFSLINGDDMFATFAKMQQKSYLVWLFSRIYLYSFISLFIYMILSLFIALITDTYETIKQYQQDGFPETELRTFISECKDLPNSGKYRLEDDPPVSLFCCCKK

[24] = target: Hexokinase (Trypanosoma brucei, UniProt Q38C41); assay: Confirmation assay for inhibitors of Trypanosoma brucei hexokinase 1-Analogue-first series. [Related pubchem assays (depositor defined):AID1430, AID1632, AID2516, AID2560, AID2579, AID2600, AID449725, AID492951]; type: functional
[25] = target: Signal transducer and activator of transcription 3 (Homo sapiens, UniProt P40763); assay: STAT3 inhibitors, late-stage profile, late-stage follow-up, cell-based, STAT1 panel, qPCR, cytotoxicity, panel member STAT3 Inhibition (AID 2078)
[26] = target: Signal transducer and activator of transcription 1-alpha/beta (Homo sapiens, UniProt P42224); assay: STAT3 inhibitors, late-stage profile, late-stage follow-up, cell-based, STAT1 panel, qPCR, cytotoxicity, panel member STAT1 Inhibition (AID 2078)
[27] = target: T8, Runt-related transcription factor 1/Core-binding factor subunit beta (Homo sapiens, UniProt Q01196+Q13951); assay: inhibitors of RUNX1 Runt–CBFb-SMMHC binding, primary screen, biochemical, FRET, Cerulean-Runt, Venus-CBFb-SMMHC, uHTS (AID 1434); type: protein assay;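 further: partner is the CBFb-SMMHC leukemia fusion protein rather than wild-type CBFb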
[28] = target: T8, Runt-related transcription factor 1/Core-binding factor subunit beta; assay: inhibitors of RUNX1 Runt–CBFb-SMMHC binding, biochemical, TR-FRET (AID 1438); type: protein assay
[29] = target: T3, Sphingosine 1-phosphate receptor 4; assay: Late-stage fluorescence dose response cell-based assay to identify agonists of the Sphingosine 1-Phosphate Receptor 4 (S1P4): purchased compounds EC50. [Related pubchem assays (depositor defined):AID1509, AID1523, AID1563, AID1686, AID1701, AID1801]; type: functional

T5 sequence (P21554 whole entry): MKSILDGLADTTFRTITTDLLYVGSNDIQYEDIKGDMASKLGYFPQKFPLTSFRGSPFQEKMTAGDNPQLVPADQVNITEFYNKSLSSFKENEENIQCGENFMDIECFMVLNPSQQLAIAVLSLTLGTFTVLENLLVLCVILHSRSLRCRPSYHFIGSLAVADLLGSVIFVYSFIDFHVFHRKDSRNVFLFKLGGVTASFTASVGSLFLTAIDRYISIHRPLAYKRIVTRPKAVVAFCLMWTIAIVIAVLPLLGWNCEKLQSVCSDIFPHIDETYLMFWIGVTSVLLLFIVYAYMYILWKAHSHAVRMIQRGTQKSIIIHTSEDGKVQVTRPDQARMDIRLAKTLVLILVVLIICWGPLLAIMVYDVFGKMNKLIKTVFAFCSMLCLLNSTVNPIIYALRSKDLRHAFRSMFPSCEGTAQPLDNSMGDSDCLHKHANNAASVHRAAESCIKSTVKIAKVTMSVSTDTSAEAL
T8 sequence (Q01196 whole entry, the tested form may be a part): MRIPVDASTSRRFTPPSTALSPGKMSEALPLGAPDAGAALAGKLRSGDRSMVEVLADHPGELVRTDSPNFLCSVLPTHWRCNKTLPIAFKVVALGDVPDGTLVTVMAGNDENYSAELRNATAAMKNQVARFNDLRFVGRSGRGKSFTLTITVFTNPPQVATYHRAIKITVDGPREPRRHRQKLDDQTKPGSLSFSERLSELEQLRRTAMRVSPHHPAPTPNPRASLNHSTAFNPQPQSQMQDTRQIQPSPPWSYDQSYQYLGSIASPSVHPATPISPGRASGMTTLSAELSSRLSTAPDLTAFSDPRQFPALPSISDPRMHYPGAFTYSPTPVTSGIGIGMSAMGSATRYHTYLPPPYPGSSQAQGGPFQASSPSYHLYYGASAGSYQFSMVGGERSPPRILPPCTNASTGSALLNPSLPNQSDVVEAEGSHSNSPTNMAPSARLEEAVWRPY
T8 sequence (Q13951 whole entry, the tested form may be a part): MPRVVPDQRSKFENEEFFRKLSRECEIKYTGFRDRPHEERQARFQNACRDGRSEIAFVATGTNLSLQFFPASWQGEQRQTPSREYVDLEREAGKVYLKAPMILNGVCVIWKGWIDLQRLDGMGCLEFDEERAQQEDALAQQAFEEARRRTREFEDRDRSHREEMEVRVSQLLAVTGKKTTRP
T6 sequence (P34972 whole entry): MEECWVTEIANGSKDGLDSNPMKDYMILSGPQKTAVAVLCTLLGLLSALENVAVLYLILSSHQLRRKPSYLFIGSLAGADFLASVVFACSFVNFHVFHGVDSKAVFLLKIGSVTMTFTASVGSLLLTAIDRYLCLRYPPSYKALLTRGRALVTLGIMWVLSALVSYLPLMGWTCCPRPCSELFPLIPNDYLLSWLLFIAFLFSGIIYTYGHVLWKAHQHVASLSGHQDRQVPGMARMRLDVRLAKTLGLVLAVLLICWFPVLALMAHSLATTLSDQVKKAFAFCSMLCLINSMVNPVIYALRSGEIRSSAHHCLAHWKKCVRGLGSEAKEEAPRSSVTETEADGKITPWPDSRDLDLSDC
T4 sequence (Q9HC97 whole entry): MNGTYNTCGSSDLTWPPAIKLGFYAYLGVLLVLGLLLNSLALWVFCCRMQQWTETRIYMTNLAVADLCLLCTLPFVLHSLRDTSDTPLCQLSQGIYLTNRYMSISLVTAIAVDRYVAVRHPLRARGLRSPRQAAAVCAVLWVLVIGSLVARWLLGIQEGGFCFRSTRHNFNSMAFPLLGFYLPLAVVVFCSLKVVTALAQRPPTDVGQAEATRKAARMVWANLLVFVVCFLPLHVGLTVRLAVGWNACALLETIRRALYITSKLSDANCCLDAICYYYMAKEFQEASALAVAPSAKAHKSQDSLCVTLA
CAAX prenyl protease 2, sequence (Q03530 whole entry): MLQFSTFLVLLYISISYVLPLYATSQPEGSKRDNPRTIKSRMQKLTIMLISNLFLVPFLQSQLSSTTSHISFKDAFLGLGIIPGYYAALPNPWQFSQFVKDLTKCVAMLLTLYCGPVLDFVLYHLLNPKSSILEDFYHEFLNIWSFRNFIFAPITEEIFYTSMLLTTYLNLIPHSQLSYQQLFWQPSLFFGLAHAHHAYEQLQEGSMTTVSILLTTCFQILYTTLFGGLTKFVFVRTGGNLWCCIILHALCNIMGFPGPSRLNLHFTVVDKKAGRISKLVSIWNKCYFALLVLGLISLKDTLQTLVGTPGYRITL
G-protein coupled receptor 55, sequence (Q9Y2T6 whole entry): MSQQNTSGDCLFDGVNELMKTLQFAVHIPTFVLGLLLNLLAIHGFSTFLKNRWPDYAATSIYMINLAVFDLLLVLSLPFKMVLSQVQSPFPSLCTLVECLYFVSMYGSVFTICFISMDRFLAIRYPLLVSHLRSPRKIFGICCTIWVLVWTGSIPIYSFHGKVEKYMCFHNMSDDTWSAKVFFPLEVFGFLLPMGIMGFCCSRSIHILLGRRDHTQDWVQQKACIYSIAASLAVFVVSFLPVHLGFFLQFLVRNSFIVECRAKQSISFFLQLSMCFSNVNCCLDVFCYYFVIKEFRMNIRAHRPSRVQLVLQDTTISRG
Signal transducer and activator of transcription 1-alpha/beta, sequence (P42224 whole entry, the tested form may be a part): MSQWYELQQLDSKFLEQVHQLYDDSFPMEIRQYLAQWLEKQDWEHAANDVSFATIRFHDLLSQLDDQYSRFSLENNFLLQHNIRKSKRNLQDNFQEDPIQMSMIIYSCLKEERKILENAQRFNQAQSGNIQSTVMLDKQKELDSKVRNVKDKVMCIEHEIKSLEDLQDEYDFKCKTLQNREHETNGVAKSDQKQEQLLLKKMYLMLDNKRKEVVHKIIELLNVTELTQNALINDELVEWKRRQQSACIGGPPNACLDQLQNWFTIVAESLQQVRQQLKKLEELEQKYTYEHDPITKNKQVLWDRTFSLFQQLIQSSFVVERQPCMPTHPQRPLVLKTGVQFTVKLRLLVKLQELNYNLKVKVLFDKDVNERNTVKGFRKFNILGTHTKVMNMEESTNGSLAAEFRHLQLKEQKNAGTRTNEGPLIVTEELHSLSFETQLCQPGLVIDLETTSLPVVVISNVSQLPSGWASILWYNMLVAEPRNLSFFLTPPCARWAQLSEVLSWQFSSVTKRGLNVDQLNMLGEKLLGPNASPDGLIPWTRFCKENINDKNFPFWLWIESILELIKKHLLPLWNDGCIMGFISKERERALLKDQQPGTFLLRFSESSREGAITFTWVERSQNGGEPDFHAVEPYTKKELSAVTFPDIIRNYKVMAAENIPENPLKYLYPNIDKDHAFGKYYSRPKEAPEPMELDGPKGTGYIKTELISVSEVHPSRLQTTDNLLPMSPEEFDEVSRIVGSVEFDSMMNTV
Sphingosine 1-phosphate receptor 1, sequence (P21453 whole entry): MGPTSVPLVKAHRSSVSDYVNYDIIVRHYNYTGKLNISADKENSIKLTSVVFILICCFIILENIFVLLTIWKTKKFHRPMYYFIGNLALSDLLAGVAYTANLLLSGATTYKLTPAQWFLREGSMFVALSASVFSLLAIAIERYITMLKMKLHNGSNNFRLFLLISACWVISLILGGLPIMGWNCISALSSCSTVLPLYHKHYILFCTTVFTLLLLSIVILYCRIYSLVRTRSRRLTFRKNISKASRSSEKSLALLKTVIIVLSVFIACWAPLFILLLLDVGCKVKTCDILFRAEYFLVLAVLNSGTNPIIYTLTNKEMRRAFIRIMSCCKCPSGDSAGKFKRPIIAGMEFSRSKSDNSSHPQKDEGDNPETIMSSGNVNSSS
Hexokinase, sequence (Q38C41 whole entry): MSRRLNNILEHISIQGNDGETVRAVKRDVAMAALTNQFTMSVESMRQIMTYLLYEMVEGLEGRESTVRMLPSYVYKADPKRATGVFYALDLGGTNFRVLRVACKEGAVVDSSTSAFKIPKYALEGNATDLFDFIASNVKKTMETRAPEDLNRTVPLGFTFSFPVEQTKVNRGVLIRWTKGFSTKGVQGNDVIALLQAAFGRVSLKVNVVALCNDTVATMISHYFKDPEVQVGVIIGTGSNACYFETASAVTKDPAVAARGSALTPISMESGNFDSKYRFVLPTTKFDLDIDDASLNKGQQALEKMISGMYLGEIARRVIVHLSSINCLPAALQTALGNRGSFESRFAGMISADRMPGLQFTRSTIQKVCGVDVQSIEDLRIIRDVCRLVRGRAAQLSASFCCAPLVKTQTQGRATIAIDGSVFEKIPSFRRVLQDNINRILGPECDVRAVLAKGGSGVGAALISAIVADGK
Signal transducer and activator of transcription 3, sequence (P40763 whole entry): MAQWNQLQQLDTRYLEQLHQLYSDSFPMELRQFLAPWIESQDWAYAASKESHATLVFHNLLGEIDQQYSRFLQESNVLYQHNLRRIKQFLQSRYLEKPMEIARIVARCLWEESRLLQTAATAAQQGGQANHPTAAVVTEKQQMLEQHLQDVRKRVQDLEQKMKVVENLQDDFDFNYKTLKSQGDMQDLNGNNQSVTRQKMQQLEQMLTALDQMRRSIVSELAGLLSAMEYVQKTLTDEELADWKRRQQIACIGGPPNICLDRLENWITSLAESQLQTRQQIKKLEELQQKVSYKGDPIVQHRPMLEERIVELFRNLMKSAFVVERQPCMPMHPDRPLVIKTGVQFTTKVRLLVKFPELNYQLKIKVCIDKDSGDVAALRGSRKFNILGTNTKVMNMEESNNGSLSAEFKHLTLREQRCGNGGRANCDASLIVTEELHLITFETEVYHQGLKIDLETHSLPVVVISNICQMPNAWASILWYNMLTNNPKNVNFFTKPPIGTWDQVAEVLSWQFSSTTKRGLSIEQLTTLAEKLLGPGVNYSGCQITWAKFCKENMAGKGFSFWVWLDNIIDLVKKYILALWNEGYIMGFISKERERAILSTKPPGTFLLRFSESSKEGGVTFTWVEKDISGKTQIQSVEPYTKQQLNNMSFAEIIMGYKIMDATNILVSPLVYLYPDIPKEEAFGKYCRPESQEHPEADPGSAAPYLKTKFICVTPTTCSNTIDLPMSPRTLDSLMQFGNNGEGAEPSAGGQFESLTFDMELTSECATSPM

COC(=O)CSc1nc(N)c2c3c(sc2n1)C(c1ccccc1)SC(c1ccccc1)C3 (centres undefined)
CC50 [1]: > 50 µM (active)
EC50 [2]: 8.88 µM (inconclusive)
EC50 [3]: > 150 µM (inconclusive)
EC50 [4]: 14.2 µM (active)
EC50 [5]: 14.4 µM (active)
EC50 [6]: 17.1 µM (inconclusive)
EC50 [7]: 11.4 µM (active)
AC50 [8]: 13.8 µM (active)
AC50 [9]: > 380 µM (inactive)
EC50 [10]: > 380 µM (inactive)

CCOC(=O)c1c(-n2c(C)cc(/C=C3\C(=O)NC(=O)N(C)C3=O)c2C)sc2c1CCCC2
EC50 [11]: > 49.8 µM (inactive)
EC50 [12]: > 49.8 µM (not active)

Cc1[nH]nc(-c2ccc(O)cc2O)c1-c1ccc(Br)cc1
EC50 [13]: > 32 µM (inactive)
EC50 [14]: > 32 µM (inactive)
IC50 [15]: > 32 µM (inactive)
IC50 [16]: 0.981 µM (active)
IC50 [17]: 5.4 µM (active)
IC50 [18]: 9.2 µM (active)
EC50 [19]: > 32 µM (inactive)

CN(C)C(=O)c1cc(-c2cc(F)c(Cl)cc2Cl)n[nH]1
IC50 [20]: > 100 µM (not active)
IC50 [21]: > 100 µM (inactive)

CCOC(=O)C1C(c2ccc3c(c2)OCO3)NC(=O)NC1(O)C(F)(F)F (centres undefined)
EC50 [22]: > 29.9 µM (inactive)
EC50 [23]: > 29.9 µM (not active)

O=c1c2cccnc2sn1-c1ccccc1
IC50 [24]: 2.27 µM (active)

Cc1sc2ncnc(N3CCC(C(=O)c4ccccc4)CC3)c2c1C
IC50 [25]: 5.21 µM (active)
IC50 [26]: > 55.7 µM (inactive)

O=C1Nc2ccccc2C12Nc1ccccc1S2 (centres undefined)
IC50 [27]: 8.95 µM (active)
IC50 [28]: 28.2 µM (active)

Cc1ccc(OCC(=O)Nc2ccc(Cl)cc2F)c([N+](=O)[O-])n1
EC50 [29]: > 50 µM (inactive)

Source: ChEMBL document CHEMBL1201862, “PubChem BioAssay data set” (2004)
